Consider 24 compounds from US20090105305A1, “Therapeutic Agents - 550” (AstraZeneca AB, priority 2006, published 2009).

In the experiment the target is T1, human Fatty Acid Synthase (Homo sapiens, UniProt P49327).
T1 construct: made in house
Nature of the experiment: Human FAS enzyme assay (decrease in NADPH fluorescence). It is filed as biochemical. The conditions noted are these: for inhibition at 100 µM: % inhibition at a concentration of 100 micromolar; for IC50s in the range of about 0.001 μM to about 30 μM: compounds excluded from the claims by proviso. The gist of the method:
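In-house human FAS (0.4 μg) was preincubated 15 min at RT with compound and NADPH (added at 166.6 μM) in 0.1 M Tris pH 7.5, 1 mM glutathione, 0.05% BSA. Malonyl-/acetyl-CoA (500/150 μM in substrate mix) was then added for 60 min. Readout was NADPH fluorescence loss (ex 340/em 460) over a time-zero read, with IC50 from a sigmoid fit.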

T1 sequence (P49327 whole entry): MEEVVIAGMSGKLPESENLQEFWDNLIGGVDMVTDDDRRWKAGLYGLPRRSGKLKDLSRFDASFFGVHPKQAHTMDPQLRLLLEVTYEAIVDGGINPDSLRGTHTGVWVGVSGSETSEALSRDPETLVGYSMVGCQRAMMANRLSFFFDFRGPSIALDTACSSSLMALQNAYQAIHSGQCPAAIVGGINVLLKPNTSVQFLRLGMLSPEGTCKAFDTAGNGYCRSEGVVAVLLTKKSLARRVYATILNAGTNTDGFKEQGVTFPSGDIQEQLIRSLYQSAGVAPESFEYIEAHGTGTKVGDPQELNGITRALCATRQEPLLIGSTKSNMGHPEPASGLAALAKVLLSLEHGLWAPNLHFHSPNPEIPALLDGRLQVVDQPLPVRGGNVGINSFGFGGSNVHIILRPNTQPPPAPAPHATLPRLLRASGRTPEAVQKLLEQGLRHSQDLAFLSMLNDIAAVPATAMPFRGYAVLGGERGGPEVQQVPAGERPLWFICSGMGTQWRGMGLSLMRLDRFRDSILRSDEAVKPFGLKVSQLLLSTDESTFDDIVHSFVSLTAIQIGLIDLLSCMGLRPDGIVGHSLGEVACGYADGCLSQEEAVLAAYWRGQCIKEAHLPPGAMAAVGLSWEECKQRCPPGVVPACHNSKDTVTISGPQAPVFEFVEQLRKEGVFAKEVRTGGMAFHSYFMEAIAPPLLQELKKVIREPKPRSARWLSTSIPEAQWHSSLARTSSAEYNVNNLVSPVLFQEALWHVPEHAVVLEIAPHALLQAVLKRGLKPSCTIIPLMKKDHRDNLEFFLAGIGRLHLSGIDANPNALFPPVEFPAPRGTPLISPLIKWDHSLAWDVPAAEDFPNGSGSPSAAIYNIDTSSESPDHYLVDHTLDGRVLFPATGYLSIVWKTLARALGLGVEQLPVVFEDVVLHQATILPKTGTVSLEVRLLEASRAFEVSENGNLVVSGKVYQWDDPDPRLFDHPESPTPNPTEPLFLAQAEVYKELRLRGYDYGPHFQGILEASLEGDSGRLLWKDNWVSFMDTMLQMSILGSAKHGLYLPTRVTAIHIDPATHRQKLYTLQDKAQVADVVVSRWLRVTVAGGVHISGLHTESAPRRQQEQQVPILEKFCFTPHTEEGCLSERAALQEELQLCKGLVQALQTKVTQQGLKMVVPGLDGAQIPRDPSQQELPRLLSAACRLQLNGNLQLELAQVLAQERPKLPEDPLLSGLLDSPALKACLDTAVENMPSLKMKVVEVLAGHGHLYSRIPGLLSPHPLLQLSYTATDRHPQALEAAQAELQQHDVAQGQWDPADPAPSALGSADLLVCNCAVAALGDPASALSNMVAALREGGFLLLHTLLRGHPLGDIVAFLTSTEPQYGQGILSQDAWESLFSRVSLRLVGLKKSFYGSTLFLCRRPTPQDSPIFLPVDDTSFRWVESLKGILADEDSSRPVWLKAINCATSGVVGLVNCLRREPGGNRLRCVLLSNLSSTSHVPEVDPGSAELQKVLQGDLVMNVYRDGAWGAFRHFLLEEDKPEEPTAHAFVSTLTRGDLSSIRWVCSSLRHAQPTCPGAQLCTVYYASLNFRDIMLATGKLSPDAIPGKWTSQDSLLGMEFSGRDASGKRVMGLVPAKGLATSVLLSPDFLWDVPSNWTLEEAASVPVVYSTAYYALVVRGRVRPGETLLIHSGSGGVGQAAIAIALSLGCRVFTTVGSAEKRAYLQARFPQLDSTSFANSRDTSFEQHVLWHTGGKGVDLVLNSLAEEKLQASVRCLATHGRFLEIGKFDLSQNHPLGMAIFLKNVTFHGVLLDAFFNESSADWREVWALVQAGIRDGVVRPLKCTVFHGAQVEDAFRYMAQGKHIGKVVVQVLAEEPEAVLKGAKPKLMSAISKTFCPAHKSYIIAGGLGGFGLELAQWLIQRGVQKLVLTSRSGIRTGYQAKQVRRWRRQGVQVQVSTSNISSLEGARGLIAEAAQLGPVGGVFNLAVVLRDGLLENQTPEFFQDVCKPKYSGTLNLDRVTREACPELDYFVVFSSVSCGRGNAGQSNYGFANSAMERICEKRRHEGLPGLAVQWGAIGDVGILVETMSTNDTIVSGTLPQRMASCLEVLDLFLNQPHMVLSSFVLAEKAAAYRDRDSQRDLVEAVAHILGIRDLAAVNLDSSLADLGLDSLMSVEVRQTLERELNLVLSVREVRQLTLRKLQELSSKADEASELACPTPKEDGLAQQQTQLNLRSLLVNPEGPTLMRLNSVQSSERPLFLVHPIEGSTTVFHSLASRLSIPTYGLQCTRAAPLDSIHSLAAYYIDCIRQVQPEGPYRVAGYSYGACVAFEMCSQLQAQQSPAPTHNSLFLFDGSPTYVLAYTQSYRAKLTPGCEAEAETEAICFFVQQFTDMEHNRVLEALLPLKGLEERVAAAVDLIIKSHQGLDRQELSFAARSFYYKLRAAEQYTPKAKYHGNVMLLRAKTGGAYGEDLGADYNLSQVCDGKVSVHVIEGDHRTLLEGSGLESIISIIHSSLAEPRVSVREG

The compound `Cc1ccc(C(=O)N2CCC(c3ccc(C#N)cc3)CC2)cc1NS(=O)(=O)CC(=O)NCCO` [Example 92, 2-[[5-[4-(4-cyanophenyl)piperidine-1-carbonyl]-2-methyl-phenyl]sulfamoyl]-N-(2-hydroxyethyl)acetamide] yielded an inhibition at 100 µM of 80%.

For `CS(=O)(=O)Nc1cc(C(=O)N2CCC(c3ccc(C#N)cc3)CC2)ccc1Cl` [N-[2-chloro-5-[4-(4-cyanophenyl)piperidine-1-carbonyl]phenyl]methanesulfonamide], the “IC50s in the range of about 0.001 μM to about 30 μM” value (shortened to “IC50s in the range”) is “do not have IC50s in the range of about 0.001 μM to about 30 μM”.

`COC(=O)C(C)S(=O)(=O)Nc1cc(C(=O)N2CCC(c3ccc(C#N)cc3)CC2)ccc1C` (stereo not drawn) [Example 137, Methyl 2-[[5-[4-(4-cyanophenyl)piperidine-1-carbonyl]-2-methyl-phenyl]sulfamoyl]propanoate] had an inhibition at 100 µM of 97%.

In turn, `COc1cc(C2CCN(C(=O)c3ccc(C)c(NS(C)(=O)=O)c3)CC2)ccc1C#N` [Example 178, N-[5-[4-(4-cyano-3-methoxyphenyl)piperidine-1-carbonyl]-2-methylphenyl]methanesulfonamide] came in with an inhibition at 100 µM of 81%.

With `Cc1ccc(C(=O)N2CCC(c3ccc(CC(N)=O)cc3)CC2)cc1NS(C)(=O)=O` [2-[4-[1-(3-methanesulfonamido-4-methylbenzoyl)piperidin-4-yl]phenyl]acetamide], the “IC50s in the range” value is listed as “do not have IC50s in the range of about 0.001 μM to about 30 μM”.

As for `COCCOc1ccc(C2CCN(C(=O)c3ccc(C)c(NS(C)(=O)=O)c3)CC2)cc1` [Example 219, N-[5-[4-[4-(2-methoxyethoxy)phenyl]piperidine-1-carbonyl]-2-methylphenyl]methane-sulfonamide], the inhibition at 100 µM is 87%.

For the compound `Cc1ccc(C(=O)N2CCC(c3ccc(CNS(=O)(=O)CC(=O)O)cc3)CC2)cc1NS(C)(=O)=O` [Example 253, 2-[[4-[1-(3-methanesulfonamido-4-methylbenzoyl)piperidin-4-yl]phenyl]methylsulfamoyl]acetic acid], the half-inhibitory concentration (IC50) (unit inferred) was 12.7 µM.

In the case of `COCCS(=O)(=O)Nc1cc(C(=O)N2CCC(c3ccc(C#N)cc3)CC2)ccc1C` [Example 105, N-[5-[4-(4-cyanophenyl)piperidine-1-carbonyl]-2-methyl-phenyl]-2-methoxy-ethanesulfonamide], at 100 µM the inhibition was 89%.

Regarding `Cc1ccc(C(=O)N2CCC(O)(c3ccc(C#N)cc3)CC2)cc1NS(=O)(=O)Cc1ccccc1` [Example 70, N-[5-[4-(4-cyanophenyl)-4-hydroxy-piperidine-1-carbonyl]-2-methyl-phenyl]-1-phenyl-methanesulfonamide], the inhibition at 100 µM came out at 87%.

`Cc1ccc(C(=O)N2CCC(c3ccc(Br)cc3)CC2)cc1NS(C)(=O)=O` [Example 169, N-[5-[4-(4-bromophenyl)piperidine-1-carbonyl]-2-methylphenyl]methanesulfonamide]: the inhibition at 100 µM stood at 90%.

On to `Cc1ccc(C(=O)N2CCC(c3ccc(C#N)cc3)CC2)cc1NS(=O)(=O)CCCNC(C)C` [Example 73, N-[5-[4-(4-cyanophenyl)piperidine-1-carbonyl]-2-methyl-phenyl]-3-(propan-2-ylamino)propane-1-sulfonamide], for which the inhibition at 100 µM was 94%.

For the compound `COc1cccc(C2CCN(C(=O)c3ccc(C)c(NS(C)(=O)=O)c3)CC2)c1` [N-[5-[4-(3-methoxyphenyl)piperidine-1-carbonyl]-2-methylphenyl]methanesulfonamide], the “IC50s in the range” value is recorded as “do not have IC50s in the range of about 0.001 μM to about 30 μM”.

Regarding `Cc1ccc(C(=O)N2CCC(c3ccc(C#N)c(C(F)(F)F)c3)CC2)cc1NS(C)(=O)=O` [N-[5-[4-[4-cyano-3-(trifluoromethyl)phenyl]piperidine-1-carbonyl]-2-methylphenyl]methanesulfonamide], the “IC50s in the range” value is given as “do not have IC50s in the range of about 0.001 μM to about 30 μM”.

`Cc1ccc(C(=O)N2CCC(c3ccc(-c4nnco4)cc3)CC2)cc1NS(C)(=O)=O` [Example 168, N-[2-methyl-5-[4-[4-(1,3,4-oxadiazol-2-yl)phenyl]piperidine-1-carbonyl]phenyl]methanesulfonamide] showed an inhibition at 100 µM of 75%.

The compound `CNC(=O)Cc1ccc(C2CCN(C(=O)c3ccc(C)c(NS(C)(=O)=O)c3)CC2)cc1` [Example 240, 2-[4-[1-(3-methanesulfonamido-4-methylbenzoyl)piperidin-4-yl]phenyl]-N-methylacetamide] came in with an inhibition at 100 µM of 63.9%.

`CCCC(C)S(=O)(=O)Nc1cc(C(=O)N2CCC(c3ccc(C#N)cc3)CC2)ccc1C` (stereo not drawn) [Example 63, N-[5-[4-(4-cyanophenyl)piperidine-1-carbonyl]-2-methyl-phenyl]pentane-2-sulfonamide] registered an inhibition at 100 µM of 85%.

For `Cc1ccc(C(=O)N2CCC(c3ccccc3)CC2)cc1NS(C)(=O)=O` [N-[2-methyl-5-(4-phenylpiperidine-1-carbonyl)phenyl]methanesulfonamide], the “IC50s in the range” value is given as “do not have IC50s in the range of about 0.001 μM to about 30 μM”.

In the case of `CCS(=O)(=O)Nc1cc(C(=O)N2CCC(c3ccc(C#N)cc3)CC2)c(C)cc1C` [Example 166, N-[5-[4-(4-cyanophenyl)piperidine-1-carbonyl]-2,4-dimethylphenyl]ethanesulfonamide], at 100 µM the inhibition was 96%.

Compound `Cc1ccc(C(=O)N2CCC(c3ccc(-c4ccccc4)cc3)CC2)cc1NS(C)(=O)=O` [Example 175, N-[2-methyl-5-[4-(4-phenylphenyl)piperidine-1-carbonyl]phenyl]methanesulfonamide] registered an inhibition at 100 µM of 71%.

`CC(=O)Nc1ccc(S(=O)(=O)Nc2cc(C(=O)N3CCC(c4ccc(C#N)cc4)CC3)ccc2C)cc1` [Example 22, N-[4-[[5-[4-(4-cyanophenyl)piperidine-1-carbonyl]-2-methyl-phenyl]sulfamoyl]phenyl]acetamide] had an inhibition at 100 µM of 95%.

For the compound `CCC(=O)NCc1ccc(C2CCN(C(=O)c3ccc(C)c(NS(C)(=O)=O)c3)CC2)cc1` [Example 225, N—[[4-[1-(3-methanesulfonamido-4-methylbenzoyl)piperidin-4-yl]phenyl]methyl]propanamide], testing at 100 µM gave an inhibition of 89.1%.

For `Cc1ccc(C(=O)N2CCC(c3cccc(-c4ccccc4)c3)CC2)cc1NS(C)(=O)=O` [N-[2-methyl-5-[4-(3-phenylphenyl)piperidine-1-carbonyl]phenyl]methanesulfonamide], the “IC50s in the range” value is “do not have IC50s in the range of about 0.001 μM to about 30 μM”.

As for `Cc1ccc(C(=O)N2CCC(O)(c3ccc(Cl)cc3)CC2)cc1NS(C)(=O)=O` [N-[5-[4-(4-chlorophenyl)-4-hydroxypiperidine-1-carbonyl]-2-methylphenyl]methanesulfonamide], the “IC50s in the range” value is recorded as “do not have IC50s in the range of about 0.001 μM to about 30 μM”.

As for `COC(=O)CCS(=O)(=O)Nc1cc(C(=O)N2CCC(c3ccc(C#N)cc3)CC2)ccc1C` [Example 144, Methyl 3-[[5-[4-(4-cyanophenyl)piperidine-1-carbonyl]-2-methyl-phenyl]sulfamoyl]propanoate], the inhibition at 100 µM was 88%.
